According to US20250262193A1, “Therapeutic Tyrosine Kinase Inhibitors For Multiple Sclerosis and Myasthenia Gravis” (Principia Biopharma Inc., priority 2022, published 2025):
Each block holds one compound with its values, some of them ahead of it.

Key:
[1] = biological target: T1, BCRP (Homo sapiens, UniProt Q9UNQ0); conditions: in vitro studies; cited from earlier work
T1 sequence (Q9UNQ0 1-655): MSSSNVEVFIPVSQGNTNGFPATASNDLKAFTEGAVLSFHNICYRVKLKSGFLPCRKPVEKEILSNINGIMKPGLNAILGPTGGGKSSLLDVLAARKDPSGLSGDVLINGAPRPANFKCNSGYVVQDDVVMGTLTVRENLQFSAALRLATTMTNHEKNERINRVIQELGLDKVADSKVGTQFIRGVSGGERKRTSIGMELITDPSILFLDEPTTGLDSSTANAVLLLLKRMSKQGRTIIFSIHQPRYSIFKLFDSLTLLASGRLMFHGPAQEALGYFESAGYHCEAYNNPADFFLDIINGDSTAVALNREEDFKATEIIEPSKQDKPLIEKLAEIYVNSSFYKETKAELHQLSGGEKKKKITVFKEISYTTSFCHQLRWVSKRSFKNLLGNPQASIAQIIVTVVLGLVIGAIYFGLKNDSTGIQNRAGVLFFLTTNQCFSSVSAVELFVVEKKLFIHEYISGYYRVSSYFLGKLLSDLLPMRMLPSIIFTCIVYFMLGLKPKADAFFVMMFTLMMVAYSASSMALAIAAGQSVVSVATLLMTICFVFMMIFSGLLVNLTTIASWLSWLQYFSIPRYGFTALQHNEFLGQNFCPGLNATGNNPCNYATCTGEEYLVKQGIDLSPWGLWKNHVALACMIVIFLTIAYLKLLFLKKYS

[2] = following repeated doses of teriflunomide; cited from earlier work
[3] = Drug interaction study INT16726: potent CYP2C8 inhibitor gemfibrozil; CYP3A4/CYP2C8 inducer rifampicin, healthy participants; type: in vivo, human
Description: (§1) Tolebrutinib is a substrate of the CYP3A4 and CYP2C8 isoenzymes. […] In healthy participants, the potent CYP3A4 and moderate CYP2C8 induction by rifampicin (600 mg once daily for 8 days) decreased tolebrutinib exposure by 6-fold. Therefore, potent and also moderate (based on prediction) CYP3A inducers are not permitted due to their potential to decrease tolebrutinib exposure and efficacy.
(§2) Potent and moderate inducers of CYP3A or potent inhibitors of CYP2C8 hepatic enzymes are not permitted throughout the study (see Appendix 8A [Section 10.8]). • Tolebrutinib: Tolebrutinib is a substrate of the CYP3A4 and CYP2C8 isoenzymes. […] In healthy participants, potent CYP3A4 and moderate CYP2C8 induction by rifampicin (600 mg once daily for 8 days) decreased Tolebrutinib exposure 6-fold (INT16726 study). Therefore, potent and also moderate (based on prediction) CYP3A inducers are not permitted due to their potential to decrease Tolebrutinib exposure and efficacy. See Table 2H for the list of drugs not to be used. • Teriflunomide: Other potent CYP and transporter inducers should be avoided due to their potential to decrease teriflunomide exposure. Rifampicin and other known potent CYP and transporter inducers such as carbamazepine, phenobarbital, phenytoin, avasimibe, lumacaftor, rifapentine, rifabutin, and St John's wort, should be avoided. […]

[4] = Drug interaction study INT16385: potent CYP3A4 inhibitor itraconazole, healthy participants; type: in vivo, human; conditions: with potent CYP3A4 inhibitor itraconazole 200 mg once daily for 4 days
[5] = Blood-brain barrier crossing
[6] = biological target: T2, CYP2C8 (Homo sapiens, UniProt P10632); experiment: Nonclinical drug metabolism studies (CYP substrate); type: in vitro ADME
T2 sequence (P10632 1-490): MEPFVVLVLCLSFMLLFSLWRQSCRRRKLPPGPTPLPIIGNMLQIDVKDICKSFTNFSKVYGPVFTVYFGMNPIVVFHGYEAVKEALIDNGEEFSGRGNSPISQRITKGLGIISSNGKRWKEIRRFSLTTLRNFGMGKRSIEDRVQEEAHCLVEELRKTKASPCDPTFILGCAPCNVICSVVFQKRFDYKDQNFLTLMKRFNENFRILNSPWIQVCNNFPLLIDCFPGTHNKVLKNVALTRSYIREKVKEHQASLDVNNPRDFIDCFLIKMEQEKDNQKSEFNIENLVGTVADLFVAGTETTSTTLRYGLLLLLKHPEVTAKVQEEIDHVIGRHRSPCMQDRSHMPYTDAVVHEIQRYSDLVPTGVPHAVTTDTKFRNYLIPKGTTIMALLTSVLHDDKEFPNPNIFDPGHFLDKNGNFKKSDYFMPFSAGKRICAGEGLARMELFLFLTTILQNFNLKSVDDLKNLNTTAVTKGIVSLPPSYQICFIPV
Description: as §1, §2

[7] = biological target: CYP3A4 (Homo sapiens, UniProt P08684); experiment: as above; type: in vitro ADME
Description: as §1, §2

[8] = Ongoing Phase 3 and LTS studies: safety (drug-induced liver injury); type: in vivo, human
Source text: Drug-induced liver injury has been identified in the ongoing tolebrutinib Phase 3 trials. […] Thus, there is a need to mitigate the risk of hepatic injury and provide safe treatment for patients with MS or MG.
All safety summaries will be descriptive; no statistical significance tests will be performed on safety data. This includes treatment-emergent adverse events (TEAEs) and other safety information (eg, clinical laboratory evaluations, electrocardiograms [ECGs], and vital signs). TEAEs are defined as adverse events (AEs) that developed or worsened or became serious during the treatment period. These analyses will be based on the safety population, defined as all participants randomly assigned and exposed to study intervention, regardless of the amount of exposure, analyzed according to the treatment actually received. • Two participants had treatment-emergent transient alanine aminotransferase (ALT) increase >3×ULN, 1 during the 30 mg SAR442168 treatment period (at Week 8, 105 U/L [normal range 6 to 34 U/L]) that returned to normal range within 4 days and 1 during the 60 mg SAR442168 treatment period (at Week 4, 107 U/L [normal range 6 to 34 U/L]). […] All other liver enzyme levels for both participants were within normal ranges during the treatment period; one event was assessed as related and one as unrelated to the study drug by the Investigators. […]

[9] = Phase 2b dose-finding trial DRI15928 in participants with relapsing multiple sclerosis; type: in vivo, human; conditions: for alanine aminotransferase (ALT): 1 participant, normal range 6 to 34 U/L; for time for ALT to return to normal range: treatment continued
Source text: All safety summaries will be descriptive; no statistical significance tests will be performed on safety data. This includes treatment-emergent adverse events (TEAEs) and other safety information (eg, clinical laboratory evaluations, electrocardiograms [ECGs], and vital signs). TEAEs are defined as adverse events (AEs) that developed or worsened or became serious during the treatment period. These analyses will be based on the safety population, defined as all participants randomly assigned and exposed to study intervention, regardless of the amount of exposure, analyzed according to the treatment actually received. • Two participants had treatment-emergent transient alanine aminotransferase (ALT) increase >3×ULN, 1 during the 30 mg SAR442168 treatment period (at Week 8, 105 U/L [normal range 6 to 34 U/L]) that returned to normal range within 4 days and 1 during the 60 mg SAR442168 treatment period (at Week 4, 107 U/L [normal range 6 to 34 U/L]). The participant in the 60 mg group had slightly elevated ALT at screening (48 U/L) and at baseline (50 U/L); ALT levels returned to the normal range in 8 weeks. Both participants continued study treatment during this period. All other liver enzyme levels for both participants were within normal ranges during the treatment period; one event was assessed as related and one as unrelated to the study drug by the Investigators. Both participants completed the DRI15928 study and successfully rolled over to the LTS follow-up study. • One event of mild petechia in a participant (at Week 8 in the SAR442168 30 mg group) and 2 events of mild microscopic hematuria in 2 male participants (1 event at Week 16 in the SAR442168 30 mg group and 1 event on Day 1 in the SAR442168 60 mg group, with occult blood noted in urine) were reported during the treatment period in the SAR442168 Phase 2b trial. The hematology results were clinically insignificant for all 3 participants from the onset of the events. The participant with mild petechia had benign pigmentary lesions noted during screening, and the event was assessed as related to the study drug by the Investigator. The 2 events of mild microscopic hematuria were assessed as unrelated to the study drug.
The choice of the dose of 60 mg of the BTK inhibitor taken with food is based on the results of a Phase 2b dose-finding trial for tolebrutinib in participants with relapsing multiple sclerosis (DRI15928). See for example, Reich, D. S., et al., Safety and efficacy of tolebrutinib, an oral brain-penetrant BTK inhibitor, in relapsing multiple sclerosis: a phase 2b, randomised, double-blind, placebo-controlled trial. Lancet Neurol, 2021. 20(9): p. 729-738.
There were low numbers of AESIs and PCSAs observed.

[10] = Study TDR16862: up to 240 mg once daily for 14 days under fed conditions, healthy participants; type: in vivo, human
Description: as §1, §2

CYP3A4, sequence (P08684 whole entry): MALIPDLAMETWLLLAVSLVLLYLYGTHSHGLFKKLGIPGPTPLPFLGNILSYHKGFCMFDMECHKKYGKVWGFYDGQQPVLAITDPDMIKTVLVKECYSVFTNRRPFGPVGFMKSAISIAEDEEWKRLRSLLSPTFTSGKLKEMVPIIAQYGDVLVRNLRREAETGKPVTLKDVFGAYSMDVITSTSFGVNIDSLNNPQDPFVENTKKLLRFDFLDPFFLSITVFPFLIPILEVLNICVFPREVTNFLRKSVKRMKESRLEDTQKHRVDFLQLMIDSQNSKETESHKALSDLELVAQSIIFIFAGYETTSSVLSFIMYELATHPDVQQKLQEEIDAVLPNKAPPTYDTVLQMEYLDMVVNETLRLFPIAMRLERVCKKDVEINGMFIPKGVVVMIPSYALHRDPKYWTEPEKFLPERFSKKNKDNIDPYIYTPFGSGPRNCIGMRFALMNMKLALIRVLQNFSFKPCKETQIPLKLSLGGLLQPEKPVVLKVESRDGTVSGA

Structure (SMILES): C/C(O)=C(\C#N)C(=O)Nc1ccc(C(F)(F)F)cc1 [teriflunomide]
substrate of the efflux transporter BCRP [1]: substrate
ethinylestradiol and levonorgestrel exposure [2]: Increase

decrease of exposure ([3]; potent CYP3A4 and moderate CYP2C8 induction by rifampicin 600 mg once daily for 8 days): 6 fold
increase of AUC exposure ([3]; with potent CYP2C8 inhibitor gemfibrozil 600 mg twice daily for 6 days): 8.4 fold
increase of area under the curve (AUC) exposure [4]: 1.8 fold
blood-brain barrier crossing [5]: crosses the blood-brain barrier
substrate of CYP2C8 isoenzyme [6]: substrate
substrate of CYP3A4 isoenzyme [7]: substrate
events of mild microscopic hematuria ([9]; 2 male participants: Week 16 in 30 mg group, Day 1 in 60 mg group, resolved spontaneously): 2 events
AESIs and PCSAs observed ([9]; Phase 2b): low numbers
new risks identified ([9]; Phase 2b): no new risks were identified
severe infections ([9]; Phase 2b treatment period): No severe infections occurred
food effect: increase in AUC0-24 ([9]; fed status, Phase 2b PK data): approximately 2 fold
events of mild petechia ([9]; female participant, Week 8, 30 mg group, resolved spontaneously): One
cytopenia, including thrombocytopenia and neutropenia ([9]; hematologic laboratory results): No clinically significant cytopenia
Structure (SMILES): C=CC(=O)N1CCC[C@@H](n2c(=O)n(-c3ccc(Oc4ccccc4)cc3)c3c(N)nccc32)C1 [tolebrutinib, (R)-1-(1-acryloylpiperidin-3-yl)-4-amino-3-(4-phenoxyphenyl)-1H-imidazo[4,5-c]pyridin-2(3H)-one]
tolerability ([8]; ongoing Phase 3 and LTS studies, to date): generally well tolerated
reversibility of DILI / liver enzyme elevation after treatment discontinuation ([8]; ongoing Phase 3 trials): appear reversible
alanine aminotransferase (ALT) ([9]; 30 mg treatment period, Week 8): 105 U/L
alanine aminotransferase (ALT) ([9]; 60 mg treatment period, Week 4, 48 U/L at screening, 50 U/L at baseline): 107 U/L
cardiac arrhythmia ([9]; ECG monitoring): no clinically significant cardiac arrhythmia was observed
correlation between dose administered and number of TEAEs ([9]; Phase 2b): no correlation
most frequently reported infections (≥3 events total) ([9]; Phase 2b treatment period): upper respiratory tract infection, nasopharyngitis, gastroenteritis, and respiratory tract infection
participants with treatment-emergent transient ALT increase >3×ULN ([9]; Phase 2b, 1 at 30 mg, 1 at 60 mg): Two
correlation between treatment response and exposure ([9]; new gadolinium-enhancing T1-hyperintense lesions after 12 weeks of treatment): higher exposure was associated with low numbers of new gadolinium-enhancing T1-hyperintense lesions
time for ALT to return to normal range ([9]; participant of the 30 mg treatment period): ≤ 4 days
time for ALT to return to normal range ([9]; participant of the 60 mg group): 8 weeks
most common events (preferred terms) ([9]; tolebrutinib treatment arms, Phase 2b): headache, upper respiratory tract infection, and nasopharyngitis
safety and tolerability profile [10]: satisfactory
